Results reported in patent US20070287676A1, “Diagnosis and treatment of endometriosis” (priority 2006, published 2007).

Assays:
YHES cells = test: Long-term culture and morphology after treatment; format: cell-based, human; settings: for recovery judged by morphology: four weeks after the treatment, TSA and RU486 at 100 μM
Description: The micrographs of the first two rows were taken using 20× magnification, and those of the third row were taken using 10× magnification. The micrographs of the first row and the first two micrographs of second row were obtained using differential inference contrast (DIC) optic; the others were obtained without the DIC optic. […]

AR [1] = test: Western blot of AR protein in treated YHES cells; format: cell-based, human; settings: 16 hrs; TSA 10 μM, CDB 100 μM, NAC 10 mM
Procedure: Western blot analysis was performed to measure protein expression of β-actin, ERα, ERβ, and AR. […] Whole cell lysate was prepared as previously described (44) by using RIPA lysis buffer containing 50 mM Tris, pH 7.4, 150 mM NaCl, 12 mM EDTA, 1% Triton X-100, 0.5% sodium deoxycholate, and 0.1% SDS. To avoid degradation, a protease inhibitor cocktail III (Sigma) was added at 2%. Total protein was quantified using a BCA protein assay kit (Pierce, Rockford, Ill.). Ten microgram of total protein was separated by electrophoresis on 10% SDS-polyacrylamide gels. The protein was then transferred onto PVDF membranes (Milipore, Bedford, Mass.). […] The blot was then subsequently incubated with primary antibody rabbit anti-human ERα (Santa Cruz Biotechnology, CA), rabbit anti-human ERβ (Zymed Laboratories, South San Francisco, Calif.), rabbit anti-β-actin (Cell Signaling Technology, Beverly, Mass.), or rabbit ant-human AR (Santa Cruz Biotechnology, CA), respectively, in blocking solution (5% nonfat dry milk plus PBS) for 2 hr at room temperature. After washing with PBS plus 0.5% Tween-20, the membranes were then incubated with the secondary antibody goat anti-rabbit IgG (H+L)-HRP (Santa Cruz Biotechnology, CA) at 1:8000 dilution in blocking solution for 2 h at room temperature. […]

PR-A = PR-A mRNA expression by RT-PCR in treated YHES cells; format: cell-based, human; settings: 8 h, 18 h and 36 h; TSA 10 μM, CDB 100 μM, NAC 10 mM; semi-quantitative RT-PCR
Procedure: (§1) The YHES cells were harvested by trypsinization and seeded in 12-well at 5×10^4 cells/well plates and were pretreated with E2 and P as described above. […] Total RNA was isolated from treated cells using TRIzol reagent (Invitrogen, Carlsbad, Calif.) according to the manufacturer's instructions. The integrity of total RNA was inspected on an agarose gel. One microgram of total RNA from each sample was treated with DNase I to remove potential DNA contamination and then reverse-transcribed using Superscript II Reverse Transcriptase (Invitrogen). First-strand cDNA obtained from RNA samples was stored at −80° C. until use. To measure the mRNA expression levels of AR, PR-A, PR-B, Fas and FasL in each cell culture, semi-quantitative PCR analysis was performed.
(§2) Quantitative real-time RT-PCR was carried out on an ABI 7900 DNA sequencer (Applied Biosystems), and monitored by SYBR Green I (Qiagen, Valencia, Calif.). The PCR products of the expected size were visualized on a 0.8% agarose gel. The relative mRNA level of each gene was calculated using relative quantitation of gene expression (Applied Biosystems, Foster City, Calif.) with 18s as an endogenous control. The reproducibility of the quantitative measurements was evaluated by two independent cDNA syntheses. The means and standard deviations of the replicated measurements were calculated and presented as mean ±s.d.

[2] = tested on: YHES cells pretreated with H2O2; test: H2O2-induced cell proliferation, MTT assay; format: cell-based, human; settings: H2O2 1 μM, 48 hours; for suppression of H2O2-induced cell proliferation: vs H2O2 only
Procedure: MTT assay was performed after 48 hours of treatment.
(§3) The YHES cells were harvested by trypsinization and seeded in 96-well plate at ˜1×10^4 cells/well. The cells were allowed to attach to the plate for overnight at 37° C. with 5% C02 in a humidified incubator. Then they were pretreated with physiological concentration of E2 (10^-9M) and P (10^-7M) for 24 hr to maintain hormonal responsiveness. […] Cell growth was valuated by the MTT assay (ATCC, Manassas, Va.). MTT assay was performing according to the manufacturer's instructions, and in triplicate to generate mean values. Cell numbers in the untreated control were arbitrarily assigned as 1. The relative cell growth was expressed as fold increase/decrease relative to the control. Data were presented as mean values from three independently repeated experiments.
The addition of H202 was meant to mimic the oxidative stress as reported in endometriosis. […] RU486 suppressed cell proliferation by 75% at the concentration of 100 μM.

Fas = Fas mRNA expression by RT-PCR in treated YHES cells; format: cell-based, human
Procedure: as §1, §2

PR-B = PR-B mRNA expression by RT-PCR in treated YHES cells; format: cell-based, human; settings: 8 h, 18 h and 36 h; TSA 10 μM, CDB 100 μM, NAC 10 mM; semi-quantitative RT-PCR
Procedure: as §1, §2

AR [3] = test: AR mRNA expression by RT-PCR in treated YHES cells; format: cell-based, human; settings: for AR mRNA expression level vs untreated control: 8 h, 18 h and 36 h, TSA 10 μM, CDB 100 μM, NAC 10 mM, semi-quantitative RT-PCR; for AR expression: 36 h of treatment, real-time RT-PCR
Procedure: as §1, §2

[4] = tested on: YHES cells (immortalized human endometrial stromal cell line); test: MTT cell proliferation assay in YHES cells; format: cell-based; settings: 48 hr; for increased cell proliferation: E2 and P pretreated, vs control
Procedure: An immortalized human endometrial stromal cell line was maintained following Krikun et al. (Krikun et al. 2004 Endocrinology 145:2291-6). Cells were maintained in phenol red-free DMEM/F12 (Gibco, CA) medium supplemented with 10% charcoal-dextran stripped FBS (Biomeda, CA), 1 μl/ml sodium pyruvate (Gibco, CA) and 1× Pen/Strep/Fungizone (Gibco, CA), at 37° C. with 5% C02 in a humidified incubator.
as §3

endometriotic cells = test: Suppression of growth and inflammation of endometriotic cells; format: cell-based; settings: used alone
[5] = tested on: endometrial stromal cells; settings: in vitro; cited from earlier work
endometrial cells = settings: immortalized human endometrial stromal cells; cited from earlier work
[6] = Pilot study: safety, tolerability and laboratory monitoring; format: in vivo, human
Description: The diagnosis of adenomyosis of all three patients was made based on symptomology, pelvic examination and vaginal ultrasound evaluation by experienced physicians (FIG. 28). […] The treatment was terminated at the end of the 3rd month after taking the drug and the patients were followed up for an additional 3 months. During treatment, clinical signs, symptoms and ultrasound evaluation were closely monitored. Blood counts and biochemistries including liver function tests, ammonium and coagulation studies were performed monthly.

[7] = tested on: patients diagnosed with adenomyosis; test: Pilot study of off-label valproic acid in adenomyosis; format: in vivo, human; settings: for relief of dysmenorrhea reported by patients: 3 patients
Description: After informed consent, we recruited three patients diagnosed with adenomyosis (FIG. 28). All three patients had moderate to severe dysmenorrehea. They were all married and parous, and had normal menstrual cycles (28-30 days). […] During the recruitment, all patients were offered the option of hysterectomy or the chance to try an experimental drug. They all chose to try the drug and were all given the full explanation of the experimental nature of this study and possible risks associated with it. Approval for this pilot study was obtained from the local ethics committee at Shanghai OB/GYN Hospital, Fudan University. The diagnosis of adenomyosis of all three patients was made based on symptomology, pelvic examination and vaginal ultrasound evaluation by experienced physicians (FIG. 28). […] The treatment was terminated at the end of the 3rd month after taking the drug and the patients were followed up for an additional 3 months. During treatment, clinical signs, symptoms and ultrasound evaluation were closely monitored. Blood counts and biochemistries including liver function tests, ammonium and coagulation studies were performed monthly.

[8] = 18 and 36 h after the treatment

CC(=O)O[C@]1(C(C)=O)CC[C@H]2[C@@H]3CCC4=CC(=O)CCC4=C3[C@@H](c3ccc(N(C)C)cc3)C[C@@]21C [CDB, CDB-2914]
cell morphology (YHES cells; 24 h after the treatment): signs of apparent apoptosis | recovery judged by morphology (YHES cells): apparently recovered | AR protein level vs control group (AR [1]): increased | PR-A mRNA expression level vs untreated control (PR-A): increased | suppression of H2O2-induced cell proliferation ([2]; 100 μM): 49% | Fas expression (Fas; [8]): decreased | Fas expression (Fas; 8 h after the treatment): increased | PR-B mRNA expression level vs untreated control (PR-B): increased | AR mRNA expression level vs untreated control (AR [3]): increased | AR expression (AR [3]): maintained the increased expression | effect on cell proliferation ([4]; 10 μM or lower (10, 1, 0.1 μM)): statistically non-significant inhibition of cell proliferation | effect on cell proliferation ([4]; 100 μM (highest concentration)): significant suppression of cell proliferation

Nc1ncn([C@@H]2O[C@H](CO)[C@@H](O)[C@H]2O)c(=O)n1 [5-azacytidine]
effect of use alone on growth and inflammation (endometriotic cells): some effect in suppression of growth (but not inflammation)

C[C@]12CC[C@@H]3c4ccc(O)cc4C[C@@H](CCCCCCCCC[S+]([O-])CCCC(F)(F)C(F)(F)F)[C@H]3[C@@H]1CC[C@@H]2O (stereo partly shown) [ICI, ICI 182780]
effect on H2O2-induced cell proliferation ([2]; 100 μM): did not significantly inhibit | increase in proliferation as compared with the control group ([4]; 0.1 μM): about 40% | effect on cell proliferation ([4]; across 100, 10, 1, 0.1 μM): no statistically significant reduction in proliferation

OO [H2O2]
increased cell proliferation ([4]; 1 μM): 18% | increased cell proliferation ([4]; 10 μM): 22% | effect on cell proliferation ([4]; 100 μM (highest concentration)): induced inhibition of proliferation

CC(=O)N[C@@H](CS)C(=O)O [NAC, N-acetylcysteine]
recovery judged by morphology (YHES cells): apparently recovered | PR-A mRNA expression level vs untreated control (PR-A): increased | suppression of H2O2-induced cell proliferation ([2]; 10 mM): 63% | Fas expression (Fas; [8]): decreased | Fas expression (Fas; 8 h after the treatment): increased | PR-B mRNA expression level vs untreated control (PR-B): increased | AR mRNA expression level vs untreated control (AR [3]): increased | AR expression (AR [3]): maintained the increased expression | suppression of proliferation ([4]; 10 mM): 35% | suppression of proliferation ([4]; 30 mM): 50%

CC#C[C@]1(O)CC[C@H]2[C@@H]3CCC4=CC(=O)CCC4=C3[C@@H](c3ccc(N(C)C)cc3)C[C@@]21C [RU486]
suppression of H2O2-induced cell proliferation ([2]; 100 μM): 75% | reduction of cell proliferation as compared with controls ([4]; 100 μM): > 95%

CCCC(CCC)C(=O)O [VPA, valproic acid]
effect on proliferation [5]: suppressing proliferation of endometrial and endometriotic cells in vitro | effect on cell cycle (endometrial cells): induce cell cycle arrest | tolerability ([6]; 3-month oral VPA): well tolerated | serum level of testosterone vs normal range ([6]; end of three month after taking VPA): within the normal range | liver function and other biochemistries ([6]; monthly during treatment, all cases): remained normal | average reduction of uterus size ([7]; end of the 3-month treatment, three patients): 33% | uterus size by physical examination ([7]; end of the 3rd month): slight reduction in uterus size in one patient but no change in the other two | pelvic and ultrasound examinations ([7]; one month after taking VPA): no change in uterus size or other conditions | relief of dysmenorrhea reported by patients ([7]; three months after taking the drug (end of treatment)): all three patients reported complete relief of pain without any need for pain-killers | relief of dysmenorrhea reported by patients ([7]; three months after taking the drug (end of treatment), listed as valproic acid): all three recruited patients reported complete disappearance of dysmenorrhea | dysmenorrhea reported by patients ([7]; three months after the discontinuation of the treatment): 2 patients reported disappearance of dysmenorrehea, but 1 reported the return of the same symptom | relief of dysmenorrhea reported by patients ([7]; two months after taking VPA, oral 500 mg b.i.d. then t.i.d.): 2 patients reported complete relief of dysmenorrehea with no need for pain-killers, and 1 reported much relieved pain
